In patent publication US20260297109A1, “COMPOUNDS AS SUMO ACTIVATING ENZYME INHIBITORS” (WIGEN BIOMEDICINE TECHNOLOGY (SHANGHAI) CO., LTD., priority 2022, published 2026):

The compounds below were run against T1, SAE (Homo sapiens, UniProt Q9UBT2) (assay: SUMO IF: in vitro inhibitory activity assay against SAE in HCT116 cells (SUMO-2/3 immunofluorescence)). Conditions: class symbols, 6 h at 37° C.
T1 construct: endogenous in cells; host or cells: HCT116
T1 sequence (Q9UBT2 1-640): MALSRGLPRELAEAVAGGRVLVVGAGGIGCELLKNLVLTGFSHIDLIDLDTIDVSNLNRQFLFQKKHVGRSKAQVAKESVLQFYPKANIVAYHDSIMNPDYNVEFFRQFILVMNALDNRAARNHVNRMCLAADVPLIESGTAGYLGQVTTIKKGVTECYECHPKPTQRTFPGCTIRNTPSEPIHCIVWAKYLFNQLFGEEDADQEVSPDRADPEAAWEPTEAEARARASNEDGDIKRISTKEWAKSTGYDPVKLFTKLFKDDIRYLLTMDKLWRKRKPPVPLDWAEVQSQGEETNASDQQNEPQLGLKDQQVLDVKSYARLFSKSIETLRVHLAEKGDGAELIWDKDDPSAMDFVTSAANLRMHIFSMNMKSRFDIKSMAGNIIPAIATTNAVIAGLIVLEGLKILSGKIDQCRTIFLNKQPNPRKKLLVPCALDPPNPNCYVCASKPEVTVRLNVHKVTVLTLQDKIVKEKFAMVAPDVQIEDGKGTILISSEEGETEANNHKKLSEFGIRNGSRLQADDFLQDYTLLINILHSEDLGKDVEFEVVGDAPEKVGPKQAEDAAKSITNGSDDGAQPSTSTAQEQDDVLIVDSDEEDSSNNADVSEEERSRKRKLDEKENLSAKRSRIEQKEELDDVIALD
T1 sequence (Q9UBE0 1-346): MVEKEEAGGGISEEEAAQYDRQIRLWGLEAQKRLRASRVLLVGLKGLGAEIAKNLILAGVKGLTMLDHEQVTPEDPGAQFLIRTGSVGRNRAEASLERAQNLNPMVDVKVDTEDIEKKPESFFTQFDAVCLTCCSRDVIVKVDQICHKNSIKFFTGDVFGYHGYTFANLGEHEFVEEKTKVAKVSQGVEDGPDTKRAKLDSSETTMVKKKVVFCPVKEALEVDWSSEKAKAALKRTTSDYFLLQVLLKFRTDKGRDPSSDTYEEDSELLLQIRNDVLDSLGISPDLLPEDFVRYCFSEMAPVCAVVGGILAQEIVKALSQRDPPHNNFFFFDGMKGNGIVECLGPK
Assay type: cell-based
Procedure: Biological Example 1. In Vitro Inhibitory Activity Assay of Compounds of the Present Disclosure Against SAE
HCT116 cells were seeded into a 96-well black transparent bottom plate at about 20000/well with 90 μL per well. The cells were incubated at 37° C. overnight for 24 h. The test compounds were 10-fold diluted to give a final concentration, and 10 μL of the diluted compounds was added to each well of the cell culture plate. The mixture was incubated at 37° C. for 6 h. The cells were then washed gently, the culture medium was discarded, and the cells were washed once with 200 μL of 0.1% PBST. 50 μL of 4% PFA was added to each well, and the cells were immobilized at room temperature for 20 min, and then washed with PBS 2-3 times. 50 μL of 0.2% Triton X-100 was added to each well, and the cells were left to stand at room temperature for 15 min and washed with 0.1% PBST 3 times. 100 μL of 3% BSA (0.6 g BSA+20 mL PBS) was added to each well, and the mixture was blocked at 37° C. for 30 min. After the blocking was completed, the liquid was removed and a primary antibody (SUMO-2/3 (18H8) Rabbit mAb, 1:400 dilution) was prepared with 1% BSA. 30 μL of the diluted primary antibody was added to each well, and the mixture was incubated at 4° C. overnight. The cells were washed 3 times with 200 μL of 0.1% PBST. A FITC secondary antibody (Fluorescein (FITC)-conjugated Affinipure Goat Anti-Rabbit IgG (H+L), 1:300 dilution) was further prepared with 1% BSA, and 40 μL of the diluted secondary antibody was added to each well. The mixture was incubated at room temperature in the dark for 2 h, and then the cells were washed 4 times with 0.1% PBST. The fluorescence signal of the sample was detected and compared to the DMSO group, and the inhibition rate and IC50 were calculated.

Row | SMILES | IC50 [nM]
1 | NS(=O)(=O)OC[C@H]1[C@H](F)[C@@H](Nc2ncncc2C(=O)c2cc3c(s2)CCC32NCCc3ccccc32)C[C@@H]1O (some centres unmarked) [Compound 127] | > 200
2 | NS(=O)(=O)OC[C@H]1[C@H](F)[C@@H](Nc2ncncc2C(=O)c2cc3c(s2)CCC32NCCc3ccc(Cl)cc32)C[C@@H]1O (some centres unmarked) [Compound 130] | 50 to 200
3 | NS(=O)(=O)OC[C@H]1[C@H](F)[C@@H](Nc2ncncc2C(=O)c2cc3c(s2)CCC32NCCc3ccc(F)cc32)C[C@@H]1O (some centres unmarked) [Compound 133] | 50 to 200
4 | N#Cc1ccc2c(c1)C1(CCc3sc(C(=O)c4cncnc4N[C@H]4C[C@H](O)[C@@H](COS(N)(=O)=O)[C@@H]4F)cc31)NCC2 (some centres unmarked) [Compound 136] | 50 to 200
5 | N#Cc1ccc2c(c1)[C@]1(CCc3sc(C(=O)c4cncnc4N[C@H]4C[C@H](O)[C@@H](COS(N)(=O)=O)[C@@H]4F)cc31)NCC2 [Compound 137] | > 200
6 | N#Cc1ccc2c(c1)[C@@]1(CCc3sc(C(=O)c4cncnc4N[C@H]4C[C@H](O)[C@@H](COS(N)(=O)=O)[C@@H]4F)cc31)NCC2 [Compound 138] | 50 to 200
7 | NS(=O)(=O)OC[C@H]1[C@H](F)[C@@H](Nc2ncncc2C(=O)c2cc3c(s2)OCC32NCCc3ccccc32)C[C@@H]1O (some centres unmarked) [Compound 139] | > 200
8 | NS(=O)(=O)OC[C@H]1[C@H](F)[C@@H](Nc2ncncc2C(=O)c2cc3c(s2)OC[C@@]32NCCc3ccccc32)C[C@@H]1O [Compound 140] | > 200
9 | NS(=O)(=O)OC[C@H]1[C@H](F)[C@@H](Nc2ncncc2C(=O)c2cc3c(s2)OC[C@]32NCCc3ccccc32)C[C@@H]1O [Compound 141] | 50 to 200
10 | NS(=O)(=O)OC[C@H]1[C@H](F)[C@@H](Nc2ncncc2C(=O)c2cc3c(s2)OCC32NCCc3ccc(F)cc32)C[C@@H]1O (some centres unmarked) [Compound 142] | > 200
11 | NS(=O)(=O)OC[C@H]1[C@H](F)[C@@H](Nc2ncncc2C(=O)c2cc3c(s2)OC[C@@]32NCCc3ccc(F)cc32)C[C@@H]1O [Compound 143] | > 200
12 | NS(=O)(=O)OC[C@H]1[C@H](F)[C@@H](Nc2ncncc2C(=O)c2cc3c(s2)OC[C@]32NCCc3ccc(F)cc32)C[C@@H]1O [Compound 144] | 50 to 200
13 | NS(=O)(=O)OC[C@H]1[C@H](F)[C@@H](Nc2ncncc2C(=O)c2cc3c(s2)OCC32NCCc3ccc(Cl)cc32)C[C@@H]1O (some centres unmarked) [Compound 145] | 50 to 200
14 | NS(=O)(=O)OC[C@H]1[C@H](F)[C@@H](Nc2ncncc2C(=O)c2cc3c(s2)OC[C@@]32NCCc3ccc(Cl)cc32)C[C@@H]1O [Compound 146] | > 200
15 | NS(=O)(=O)OC[C@H]1[C@H](F)[C@@H](Nc2ncncc2C(=O)c2cc3c(s2)OC[C@]32NCCc3ccc(Cl)cc32)C[C@@H]1O [Compound 147] | 50 to 200
16 | Cc1ccc2c(c1)C1(CCc3sc(C(=O)c4cncnc4N[C@H]4C[C@H](O)[C@@H](COS(N)(=O)=O)[C@@H]4F)cc31)NCC2 (some centres unmarked) [Compound 148] | 50 to 200
17 | NS(=O)(=O)OC[C@H]1[C@H](F)[C@@H](Nc2ncncc2C(=O)c2cc3c(s2)CCC32NCCc3ccc(C4CC4)cc32)C[C@@H]1O (some centres unmarked) [Compound 149] | 50 to 200
18 | COc1ccc2c(c1)C1(CCc3sc(C(=O)c4cncnc4N[C@H]4C[C@H](O)[C@@H](COS(N)(=O)=O)[C@@H]4F)cc31)NCC2 (some centres unmarked) [Compound 150] | > 200

Row | SMILES | IC50 [nM]
19 | NS(=O)(=O)OC[C@H]1[C@H](F)[C@@H](Nc2ncncc2C(=O)c2cc3c(s2)CCC32NCCc3ccc(C(F)(F)F)cc32)C[C@@H]1O (some centres unmarked) [Compound 151] | 50 to 200
20 | NS(=O)(=O)OC[C@H]1[C@H](F)[C@@H](Nc2ncncc2C(=O)c2cc3c(s2)CCC32NCCc3cc(F)c(F)cc32)C[C@@H]1O (some centres unmarked) [Compound 152] | 50 to 200
21 | NS(=O)(=O)OC[C@H]1[C@H](F)[C@@H](Nc2ncncc2C(=O)c2cc3c(s2)CCC32NCCc3cc(F)c(Cl)cc32)C[C@@H]1O (some centres unmarked) [Compound 153] | ≤ 50
22 | NS(=O)(=O)OC[C@H]1[C@H](F)[C@@H](Nc2ncncc2C(=O)c2cc3c(s2)CCC32NCCc3cc(Cl)c(Cl)cc32)C[C@@H]1O (some centres unmarked) [Compound 154] | 50 to 200
23 | Cc1cc2c(cc1Cl)C1(CCc3sc(C(=O)c4cncnc4N[C@H]4C[C@H](O)[C@@H](COS(N)(=O)=O)[C@@H]4F)cc31)NCC2 (some centres unmarked) [Compound 155] | 50 to 200
24 | N#Cc1cc2c(cc1Cl)C1(CCc3sc(C(=O)c4cncnc4N[C@H]4C[C@H](O)[C@@H](COS(N)(=O)=O)[C@@H]4F)cc31)NCC2 (some centres unmarked) [Compound 156] | 50 to 200
25 | COc1cc2c(cc1Cl)C1(CCc3sc(C(=O)c4cncnc4N[C@H]4C[C@H](O)[C@@H](COS(N)(=O)=O)[C@@H]4F)cc31)NCC2 (some centres unmarked) [Compound 157] | 50 to 200
26 | NS(=O)(=O)OC[C@H]1[C@H](F)[C@@H](Nc2ncncc2C(=O)c2cc3c(s2)CCC32NCCc3cc(F)c(Cl)c(F)c32)C[C@@H]1O (some centres unmarked) [Compound 158] | 50 to 200
27 | NS(=O)(=O)OC[C@H]1[C@H](F)[C@@H](Nc2ncncc2C(=O)c2cc3c(s2)CCC32NCCc3cc(Cl)c(F)cc32)C[C@@H]1O (some centres unmarked) [Compound 159] | 50 to 200
28 | NS(=O)(=O)OC[C@H]1[C@H](F)[C@@H](Nc2ncncc2C(=O)c2cc3c(s2)CCC32NCCc3ccncc32)C[C@@H]1O (some centres unmarked) [Compound 160] | 50 to 200
29 | NS(=O)(=O)OC[C@H]1[C@H](F)[C@@H](Nc2ncncc2C(=O)c2cc3c(s2)CCC32NCCc3cc(Cl)ncc32)C[C@@H]1O (some centres unmarked) [Compound 161] | 50 to 200
30 | NS(=O)(=O)OC[C@H]1[C@H](F)[C@@H](Nc2ncncc2C(=O)c2cc3c(s2)C=CC32NCCc3ccc(Cl)cc32)C[C@@H]1O (some centres unmarked) [Compound 162] | ≤ 50
31 | NS(=O)(=O)OC[C@H]1[C@H](F)[C@@H](Nc2ncncc2C(=O)c2cc3c(s2)C=CC32NCCc3ccc(F)cc32)C[C@@H]1O (some centres unmarked) [Compound 163] | 50 to 200
32 | NS(=O)(=O)OC[C@H]1[C@H](F)[C@@H](Nc2ncncc2C(=O)c2cc3c(s2)COC32NCCc3ccc(Cl)cc32)C[C@@H]1O (some centres unmarked) [Compound 164] | 50 to 200
33 | NS(=O)(=O)OC[C@H]1[C@H](F)[C@@H](Nc2ncncc2C(=O)c2cc3c(s2)CCC32NCC3(CC3)c3ccc(Cl)cc32)C[C@@H]1O (some centres unmarked) [Compound 165] | 50 to 200
34 | NS(=O)(=O)OC[C@H]1[C@H](F)[C@@H](Nc2ncncc2C(=O)c2cc3c(s2)CCC32NC3(CC3)Cc3ccc(Cl)cc32)C[C@@H]1O (some centres unmarked) [Compound 166] | 50 to 200
35 | NS(=O)(=O)OC[C@H]1[C@H](F)[C@@H](Nc2ncncc2C(=O)c2cc3c(s2)CCC32NCC(=O)c3ccc(Cl)cc32)C[C@@H]1O (some centres unmarked) [Compound 167] | 50 to 200
36 | NS(=O)(=O)OC[C@H]1[C@H](F)[C@@H](Nc2ncncc2C(=O)c2cc3c(s2)CCC32OCCc3ccc(Cl)cc32)C[C@@H]1O (some centres unmarked) [Compound 168] | ≤ 50

Same assay, conditions: numeric values, 6 h at 37° C.

Row | SMILES | IC50 [nM]
37 | NS(=O)(=O)OC[C@H]1[C@H](F)[C@@H](Nc2ncncc2C(=O)c2cc3c(s2)CC[C@@]32NCCc3ccccc32)C[C@@H]1O [Compound 128] | > 1000
38 | NS(=O)(=O)OC[C@H]1[C@H](F)[C@@H](Nc2ncncc2C(=O)c2cc3c(s2)CC[C@]32NCCc3ccccc32)C[C@@H]1O [Compound 129] | 121
39 | NS(=O)(=O)OC[C@H]1[C@H](F)[C@@H](Nc2ncncc2C(=O)c2cc3c(s2)CC[C@@]32NCCc3ccc(Cl)cc32)C[C@@H]1O [Compound 131] | > 1000
40 | NS(=O)(=O)OC[C@H]1[C@H](F)[C@@H](Nc2ncncc2C(=O)c2cc3c(s2)CC[C@@]32NCCc3ccc(F)cc32)C[C@@H]1O [Compound 134] | > 1000
41 | NS(=O)(=O)OC[C@H]1[C@H](F)[C@@H](Nc2ncncc2C(=O)c2cc3c(s2)CC[C@]32NCCc3ccc(F)cc32)C[C@@H]1O [Compound 135] | 48.9
